Experimental data published in PMC8624133, “10th Trends in Medical Mycology Held on 8 to 11 October 2021, Aberdeen, Scotland, Organized by the European Confederation of Medical Mycology (ECMM)” (Journal of Fungi, 2021).
Converted amounts (≈) assume the structure as drawn. Read-outs that look alike come from different tables or passages of the source.

What was measured:
C. guilliermondii = test: EUCAST E. Def 7.3.2 microdilution; type: cell-based, Candida guilliermondii; settings: for MIC50 / MIC90 / GM / MIC Range: n = 62
[1] = system: Phaeoacremonium parasiticum; test: Antifungal susceptibility testing; type: cell-based
Method: Results: Cultures for bacteria were sterile. Culture on Sabouraud was positive after 5 days of incubation, showing slow growing and initially white colonies. […] Its identification was performed by sequencing the internal transcribed spacer (ITS) region of ribosomal DNA, being the isolate identified as Phaeoacremonium parasiticum (100% homology).

Candida isolates = type: cell-based, Candida spp.
C. parapsilosis = test: Candidemia Netherlands, MIC distributions against EUCAST ECOFF; type: cell-based, Candida parapsilosis
[2] = system: Aspergillus spp. isolates; test: Gradient strip susceptibility (Liofilchem); type: cell-based; settings: for isolates with in vitro high MIC values: first isolate per species and patient
[3] = system: C. auris III.8 and TAC1/MRR1 deletion strains; type: cell-based, Candida auris
[4] = system: Parathyridaria percutanea; test: In vitro antifungal susceptibility; type: cell-based
[5] = system: azole-resistant A. fumigatus SS clinical strains; test: EUCAST E.DEF 9.3.2; type: cell-based; settings: Aspergillus fumigatus
A. fumigatus isolates = test: AFST by EUCAST method and direct inoculation of spore suspensions
Method: Material/methods: We used two methods for AFST: In the standard “EUCAST method”, AFST was performed using spores from a maturated colony. In the “direct inoculation method”, AFST was performed using the spore suspensions that were either stored or sent from other laboratories directly without a subculturing phase. Three groups of isolates were analyzed. […] Spore suspensions were prepared and AFST was performed daily after storing the isolates for 4 days at room temperature, and after 4 days for spore suspensions stored at 2–4 °C and at 28 °C. All measurements were performed in triplicate. Group II, retrospective analysis: 50 isolates that were sent to our laboratory as spore suspensions were tested using the direct inoculation method and stored at −70 °C in glycerol broth. The stored isolates were revived and AFST was repeated using the EUCAST method. Group III: prospective analysis: 30 isolates that were sent to our laboratory as spore suspensions were tested using the direct inoculation method and simultaneously using the EUCAST methods without storage at −70 °C. MICs based on the EUCAST and direct inoculation methods were compared.

A. flavus complex = settings: n = 6, EUCAST clinical breakpoints
A. fumigatus complex = settings: share of isolates, n = 59, EUCAST clinical breakpoints
Sporothrix brasiliensis = test: Murine subcutaneous sporotrichosis model; type: in vivo, Balb/c mice; settings: oral gavage once a day, 30 days; ITZ 50 mg/kg; DD 1, 5 or 10 mg/kg
Method: Materials & Methods: 50 Balb/c mice, male, five to seven-week-old, were subcutaneous infected (left footpad) by a clinical isolate of S. brasiliensis (5.4 × 10^7 yeast/mice). Treatments started seven days post-inoculation (p.i) in all five groups (10 mice/each): G1 control group (placebo—receiving just the diluent of the drugs), G2 treatment group (itraconazole—ITZ 50 mg/kg); G3 to G5 DD treatment groups, 1, 5 and 10 mg/kg, respectively. All mice were treated once a day by oral gavage, for 30 consecutive days. Physical conditions and behavior were daily evaluated, and individual weight was weekly determined. At the 32nd day p.i. (48 h after the end of the treatments) animals were euthanasied and lung, liver, brain, kidneys, testicle and footpad were recovered aseptically and homogenized to mycological analysis. Fungal burden in each organ was measured by quantitatively counting colony-forming units (CFU). The determination of colony forming units (CFU)/gram of tissue (g) of S. brasiliensis in internal organs of groups were compared by non-parametric tests using Kruskal-Wallis combined with Wilcoxon. The weight loss assay was calculated considering the percentage of loss and/or increase between the value corresponding to the fungal inoculation day and to the end of the treatment.

[6] = system: A. fumigatus veterinary isolates; test: EUCAST microdilution of veterinary isolates; type: cell-based, Aspergillus fumigatus
Method: All have been confirmed as A. fumigatus by MALDI-TOF MS using the BCCM/IHEM database. The antifungal susceptibility was evaluated using the microdilution EUCAST method. Cyp51A gene sequencing has been performed on all resistant isolates.

Trichophyton spp. = test: Agar-based screening method; type: cell-based; settings: 0.5 McF, 5 days, 30 °C
Method: Inter-experimental variation was evaluated by testing 10 isolates on three different days. Single-centre validation: After determining the optimal conditions for the agar screening method, 112 molecularly identified Trichophyton spp. clinical isolates were tested.

A. fumigatus strains = test: EUCAST E.DEF 9.3.2 broth microdilution; type: cell-based, Aspergillus fumigatus; set-up: MIC Range: unit not given beside the values; MIC50 / MIC90: unit not given here
Method: Methods: The research was conducted on 29 A. fumigatus strains. Minimum inhibitory concentrations (MIC) were detected by broth microdilution method (BM) following EUCAST definitive document E.DEF 9.3.2 and E-test in accordance with manufacturer instructions.

[7] = system: Fusarium solani (FS) mature biofilms; test: XTT biofilm damage assay; type: cell-based
Method: (§1) Materials & Methods: 10^5 cfu/mL of FS (n = 3) and SA (n = 3) BF-producing strains were incubated in RPMI at 37 °C for 48 h. PMN were isolated from healthy volunteers by dextran sedimentation/ficoll centrifugation. BF were incubated with PMN at effector-to-target ratio 5:1 alone or in combination with L-AMB (FS: 0.25/2/32 mg/L; SA: 0.25/1/16 mg/L) or VRC (FS: 8/64 mg/L; SA: 0.5/32 mg/L) at 37 °C/5% CO2 for 24 h. Antifungal activity was assessed by XTT reduction assay of metabolic activity. […] The % damage of the PMN+drug treatment was compared to that of PMN or drug alone by ANOVA (n = 8, p < 0.05).

[8] = system: Scedosporium apiospermum (SA) mature biofilms; test: XTT biofilm damage assay; type: cell-based
Method: as §1

[9] = III.8 tac1a/tac1b strain vs parental
[10] = III.8 tac1a/tac1b/mrr1 strain vs parental
[11] = strain from pleural fluid of an ICU patient, no mutations in cyp51A
[12] = two strains from a cystic fibrosis patient, TR34/L98H

| SMILES | MIC50 (C. guilliermondii; Meyerozyma guilliermondii) [µg/mL] | MIC90 (C. guilliermondii; Meyerozyma guilliermondii) [µg/mL] | GM (C. guilliermondii) [µg/mL] | MIC Range (C. guilliermondii) [µg/mL] | minimal inhibitory concentrations (MIC), in words [1] | isolates within the wildtype distribution range (C. parapsilosis) [%] | isolates with in vitro high MIC values [2] [%] | MIC decrease ([3]; III.8 mrr1 strain vs parental) [fold] | MIC decrease [3, 9] [fold] | MIC ([3]; III.8 tac1a/tac1b/mrr1 strain) [µg/mL] | MIC decrease [3, 10] [fold] | MIC ([3]; parental III.8 isolate) [µg/mL] | in vitro susceptibility category [4] | MIC [5, 11] [µg/mL] | MIC [5, 12] [µg/mL] | Resistance (A. fumigatus complex) [%] | MIC50 (A. fumigatus strains; 28 h) | MIC90 (A. fumigatus strains; 28 h) | MIC Range (A. fumigatus strains; 28 h, 29 strains) | MIC50 (A. fumigatus strains; 48 h) | also measured |
| --- | --- | --- | --- | --- | --- | --- | --- | --- | --- | --- | --- | --- | --- | --- | --- | --- | --- | --- | --- | --- | --- |
| C[C@@H]1[C@H](O)[C@@H](C)/C=C/C=C/C=C/C=C/C=C/C=C/C=C/[C@H](O[C@@H]2O[C@H](C)[C@@H](O)[C@H](N)[C@@H]2O)C[C@@H]2O[C@](O)(C[C@@H](O)C[C@@H](O)[C@H](O)CC[C@@H](O)C[C@@H](O)CC(=O)O[C@H]1C)C[C@H](O)[C@H]2C(=O)O [amphotericin B] | 0.25 (≈ 0.271 µM) | 0.25 (≈ 0.271 µM) | 0.177 | 0.06 to 0.5 | higher | 92.9 | 19.6 |  |  |  |  |  |  |  |  |  |  |  |  |  | susceptibility (Candida isolates): susceptible; MIC ([2]; gradient strips, ten isolates (5 A. terreus, 3 A. flavus, 1 A. fumigatus, 1 A. nidulans)): > 32 µg/mL |
| OC(Cn1cncn1)(Cn1cncn1)c1ccc(F)cc1F [fluconazole] | 8 (≈ 26.1 µM) | 16 (≈ 52.2 µM) | 7.655 | 0.125 to 64 |  | 92.5 |  | 2 | 2 | 128 (≈ 418 µM) | 4 | 512 (≈ 1670 µM) | resistance |  |  |  |  |  |  |  | MIC of non wild-type isolates (C. guilliermondii): 64 µg/mL; MIC (C. guilliermondii; Meyerozyma guilliermondii, read-out: MIC of non wild-type isolates): 32 µg/mL; resistant isolates (Candida isolates): 6.4%; increase of clearance per 100 g increase in actual bodyweight (in vivo): 16%; decrease of clearance per 10 µmol/L increase in creatinine concentration (once postnatal age was above 1 week): 12%; volume of distribution (one-compartment model, typical infant of 0.87 kg): 0.844 L; estimated clearance (one-compartment model, typical infant of 0.87 kg, serum creatinine 60 µmol/L, 41 preterm neonates, 146 plasma samples): 0.0147 L/h |
| CCC(C)n1ncn(-c2ccc(N3CCN(c4ccc(OCC5COC(Cn6cncn6)(c6ccc(Cl)cc6Cl)O5)cc4)CC3)cc2)c1=O (stereo not shown) [itraconazole] |  |  |  |  |  |  |  |  |  |  |  |  | resistance | > 8 | > 8 | 5 | 0.5 | 0.5 | 0.5–8 | 0.5 | MIC (A. fumigatus isolates; Aspergillus fumigatus, Group II, 5 strains, direct inoculation method): 2 to 4 µg/mL (≈ 2.83 to 5.67 µM); MIC (A. fumigatus isolates; Aspergillus fumigatus, Group II, the same 5 strains, EUCAST method): 0.5 to 1 µg/mL (≈ 0.709 to 1.42 µM); isolates resistant (A. flavus complex): 17%; fungal burden of internal organs vs placebo group (Sporothrix brasiliensis): lower fungal burden; isolates with values equal to the clinical breakpoint [6]: 33%; resistance of isolates [6]: No resistance; optimal agar concentration preventing growth of WT isolates (Trichophyton spp.): 1 mg/L; MIC90 (A. fumigatus strains; 48 h): 1; MIC Range (A. fumigatus strains; 48 h): 0.5–16 |
| C[C@@H](c1ncncc1F)[C@](O)(Cn1cncn1)c1ccc(F)cc1F [voriconazole] |  |  |  |  | low |  | 1.9 | 2 | 2 | 0.5 (≈ 1.43 µM) | 4 | 2 (≈ 5.73 µM) |  | 1 (≈ 2.86 µM) | 4 (≈ 11.5 µM) | 9 | 0.5 | 1 | 0.25–4 | 1 | MIC (A. fumigatus isolates; Aspergillus fumigatus, Group I, one resistant isolate): 2 to 4 µg/mL (≈ 5.73 to 11.5 µM); MIC (A. fumigatus isolates; Group III, one isolate, EUCAST methods): 2 µg/mL (≈ 5.73 µM); MIC (A. fumigatus isolates; Group III, the same isolate, direct inoculation): 1 µg/mL (≈ 2.86 µM); MIC ([3]; III.8 tac1a/tac1b strain): 1 µg/mL (≈ 2.86 µM); MIC50 ([7]; Fusarium solani, read-out: BF MIC50 (≥50% BF damage), XTT, 24 h, 37 °C): > 256 µg/mL; interaction of drug+PMN vs drug alone ([7]; VRC 64 mg/L, PMN 5:1): antagonism; MIC50 ([8]; Scedosporium apiospermum, read-out: BF MIC50 (≥50% BF damage), XTT, 24 h, 37 °C): 32 µg/mL; BF damage ([8]; VRC 32 mg/L + PMN 5:1): 69.5 ± 3%; BF damage ([8]; VRC 32 mg/L alone): 61 ± 4%; isolates in the area of technical uncertainty (ATU) [6]: 47%; MIC90 (A. fumigatus strains; 48 h): 2; MIC Range (A. fumigatus strains; 48 h): 0.25–8 |
